Results taken from article PMC8634693 (European Journal of Medicinal Chemistry, 2021).
“Also recorded” adds a separate entry of the source.

Experiments:
SARS-CoV-2 3CL^pro [1] = molecular target: T1, SARS-CoV-2 3CL^pro (Severe acute respiratory syndrome coronavirus 2, UniProt P0DTD1); assay type: biochemical
SARS-CoV-2 3CL^pro [2] = molecular target: T1, SARS-CoV-2 3CL^pro; assay type: biochemical; remark: listed apart in the source
[3] = Gastrointestinal stability in simulated gastric fluid; assay type: in vitro ADME; conditions: 20 μM, 37 °C, in 90 min
[4] = Plasma stability in human plasma; assay type: in vitro ADME; conditions: 37 °C, up to 12 h
[5] = Phase I metabolic stability in human liver microsomes
[6] = Phase II metabolic stability; conditions: human liver microsomes, in the presence of UDPGA

Compound | inhibitory activity against SARS-CoV-2 3CLpro, in words (SARS-CoV-2 3CL^pro [1]) | other results
CC(=O)OCC1Cc2c(-c3ccccn3)ccc(C)c2-c2c(O)ccc(C)c21 (stereo not shown) [Compound A8] | significant loss of potency | 
COc1ccc(-c2ccccn2)c2c1-c1c(O)ccc(C)c1C(COC(C)=O)C2 (stereo not shown) [Compound A9] | significant loss of potency | 
CC(=O)OCC1Cc2c(-c3ccccn3)ccc(F)c2-c2c(O)ccc(C)c21 (stereo not shown) [Compound A10] | significant loss of potency | 
CC(=O)OCC1Cc2c(-c3ccccn3)ccc(Br)c2-c2c(O)ccc(C)c21 (stereo not shown) [Compound A12] | significant loss of potency | 
CC(=O)OCC1Cc2c(-c3ncccc3C)cccc2-c2c(O)ccc(C)c21 (stereo not shown) [Compound A15] | comparable inhibitory activities with A1 | 
CC(=O)OCC1Cc2c(-c3cc(C)ccn3)cccc2-c2c(O)ccc(C)c21 (stereo not shown) [Compound A16] | comparable inhibitory activities with A1 | 
CC(=O)OCC1Cc2c(-c3ccc(F)cn3)cccc2-c2c(O)ccc(C)c21 (stereo not shown) [Compound A18] | comparable inhibitory activities with A1 | 
CC(=O)OCC1Cc2c(-c3ccc(Cl)cn3)cccc2-c2c(O)ccc(C)c21 (stereo not shown) [Compound A19] | increased inhibitory activities | 
CC(=O)OCC1Cc2c(-c3ccc(Br)cn3)cccc2-c2c(O)ccc(C)c21 (stereo not shown) [Compound A20] | increased inhibitory activities | 
CC(=O)OCC1Cc2c(cccc2-c2nccc3ccccc23)-c2c(O)ccc(C)c21 (stereo not shown) [Compound A21] | increased inhibitory activities | 
CC(=O)OCC1Cc2c(-c3cc4ccccc4cn3)cccc2-c2c(O)ccc(C)c21 (stereo not shown) [Compound A22] | increased inhibitory activities | 
CC(=O)OCC1Cc2c(-c3ccc4ccccc4n3)cccc2-c2c(O)ccc(C)c21 (stereo not shown) [Compound A23] | increased inhibitory activities | 
CC(=O)OCC1Cc2c(-c3ncccn3)cccc2-c2c(O)ccc(C)c21 (stereo not shown) [Compound A24] | no inhibitory activity | 
CC(=O)OCC1Cc2c(-c3ccncn3)cccc2-c2c(O)ccc(C)c21 (stereo not shown) [Compound A25] | no inhibitory activity | 
CC(=O)OCC1Cc2c(cccc2-n2cccn2)-c2c(O)ccc(C)c21 (stereo not shown) [Compound A26] | no inhibitory activity | 
CC(=O)OCC1Cc2c(cccc2-c2ncnc3c2ncn3CC2CC2)-c2c(O)ccc(C)c21 (stereo not shown) [Compound A27] | no inhibitory activity | 
C=CCn1cnc2c(-c3cccc4c3CC(COC(C)=O)c3c(C)ccc(O)c3-4)ncnc21 (stereo not shown) [Compound A28] | no inhibitory activity | 
OCC1Cc2c(-c3cc(-c4ccccc4)ccn3)cccc2-c2c(O)ccc(-c3ccc(Br)cc3)c21 (stereo not shown) [Compound C1, 1-(4-bromophenyl)-10-(hydroxymethyl)-8-(4-phenylpyridin-2-yl)-9,10-dihydrophenanthren-4-ol] |  | Inhibition mode (SARS-CoV-2 3CL^pro [2]): Mixed; inhibition manner (SARS-CoV-2 3CL^pro [2]): mixed-inhibition; gastrointestinal stability in SGF and SIF [3]: good gastrointestinal stabilities; plasma stability, in words [4]: prominent; also recorded: excellent plasma stability; inhibitory effects against CYPs (major CYPs in HLMs): moderate inhibitory effects; metabolism by human cytochrome P450 enzymes (hCYPs), in words [5]: hardly metabolized; metabolism by human hepatic UDP-glucuronosyltransferases (hUGTs), in words [6]: hardly metabolized
O=Cc1ccnc(-c2cccc3c2CC(CO)c2c(-c4ccc(Br)cc4)ccc(O)c2-3)c1 (stereo not shown) [Compound C2, 2-(8-(4-bromophenyl)-5-hydroxy-9-(hydroxymethyl)-9,10-dihydrophenanthren-1-yl)isonicotinaldehyde] |  | Inhibition mode (SARS-CoV-2 3CL^pro [2]): Mixed; inhibition manner (SARS-CoV-2 3CL^pro [2]): mixed-inhibition; gastrointestinal stability in SGF and SIF [3]: good gastrointestinal stabilities; metabolism by human cytochrome P450 enzymes (hCYPs), in words [5]: readily metabolized; metabolism by human hepatic UDP-glucuronosyltransferases (hUGTs), in words [6]: moderately metabolized
OCC1Cc2c(-c3ccc(F)cn3)cccc2-c2c(O)ccc(-c3ccc(Br)cc3)c21 (stereo not shown) [Compound C4, 1-(4-bromophenyl)-8-(5-fluoropyridin-2-yl)-10-(hydroxymethyl)-9,10-dihydrophenanthren-4-ol] | slight decreases in the inhibitory activity | 
OCC1Cc2c(-c3ccc(Cl)cn3)cccc2-c2c(O)ccc(-c3ccc(Br)cc3)c21 (stereo not shown) [Compound C5, 1-(4-bromophenyl)-8-(5-chloropyridin-2-yl)-10-(hydroxymethyl)-9,10-dihydrophenanthren-4-ol] | slight decreases in the inhibitory activity | 
